According to ChEMBL document CHEMBL1137579, “Discovery of 1-[2-[(1S)-(3-dimethylaminopropionyl)amino-2-methylpropyl]-4-methylphenyl]-4-[(2R)-methyl-3-(4-chlorophenyl)-propionyl]piperazine as an orally active antagonist of the melanocortin-4 receptor for the potential treatment of cachexia” (J Med Chem, 2007):
In brackets after ≈: the same amount, converted by molar mass. Values belong to the molecule of their own block, whether it stands above or below them. Activity calls are given as the source filed them. The rule behind the calls is not given here.

Assays:
[1] = Half life in rat at 2.5 mg/kg, iv or 10 mg/kg, po; format: ADME, organism-based; settings: in vivo
Caco-2 = assay: Permeability across Caco-2 cell membrane; format: ADME, cell-based; settings: human
[2] = Drug level in rat brain at 10 mg/kg, po after 4 hrs; format: ADME, organism-based; parameters: dose 10 mg/kg, route oral; settings: read-out: Drug uptake
[3] = AUC in rat at 10 mg/kg, po; format: ADME, organism-based; parameters: dose 10 mg/kg, route oral; settings: plasma
[4] = biological target: Melanocortin receptor 4 (Homo sapiens) (UniProt P32245); assay: Activity at MC4R expressed in HEK293 cells assessed as stimulation of cAMP release at 10 uM relative to alpha-MSH; format: functional, cell-based
[5] = Oral bioavailability in rat at 10 mg/kg, po; format: ADME, organism-based; settings: in vivo
[6] = Drug level in rat brain at 10 mg/kg, po after 1 hr; format: ADME, organism-based; parameters: dose 10 mg/kg, route oral; settings: read-out: Drug uptake
[7] = Cmax in rat at 2.5 mg/kg, iv or 10 mg/kg, po; format: ADME, organism-based; settings: in vivo
[8] = Volume of distribution in rat at 2.5 mg/kg, iv or 10 mg/kg, po; format: ADME, organism-based; settings: in vivo
[9] = Tmax in rat at 2.5 mg/kg, iv or 10 mg/kg, po; format: ADME, organism-based; settings: in vivo
[10] = Plasma clearance in rat at 5 mg/kg, iv
Cytochrome P450 3A4 = Cytochrome P450 3A4 (Homo sapiens, UniProt P08684); assay: Inhibition of CYP3A4; format: ADME
[11] = Tmax in Beagle dog at 10 mg/kg, po; format: ADME, organism-based, Canis lupus familiaris; parameters: dose 10 mg/kg, route oral; settings: in vivo, read-out: Tm
[12] = AUC in CD1 mouse at 10 mg/kg, po; format: ADME, organism-based; parameters: dose 10 mg/kg, route oral; settings: plasma
[13] = Tmax in Sprague-Dawley rat brain at 10 mg/kg, po; format: ADME, organism-based; parameters: dose 10 mg/kg, route oral
[14] = Volume of distribution in rhesus monkey at 5 mg/kg, iv; format: ADME, organism-based, Macaca mulatta; parameters: dose 5 mg/kg, route intravenous; settings: in vivo
[15] = AUC in rhesus monkey at 5 mg/kg, iv; format: ADME, organism-based, Macaca mulatta; parameters: dose 5 mg/kg, route intravenous; settings: plasma
Mus musculus [16] = assay: AUC in CD1 mouse brain at 10 mg/kg, po; format: ADME, organism-based; parameters: dose 10 mg/kg, route oral; settings: in vivo
[17] = Ratio of drug level in brain to plasma in rat at 5 mg/kg, iv or 10 mg/kg, po after 4 hrs; format: ADME, organism-based
[18] = Tmax in rhesus monkey at 10 mg/kg, po; format: ADME, organism-based, Macaca mulatta; parameters: dose 10 mg/kg, route oral; settings: in vivo, read-out: Tm
[19] = Aqueous solubility at pH 7.0; format: physicochemical; settings: aqueous medium
[20] = Volume of distribution in rat at 5 mg/kg, iv or 10 mg/kg, po; format: ADME, organism-based; settings: in vivo
[21] = AUC in CD1 Beagle dog at 10 mg/kg, po; format: ADME, organism-based, Canis lupus familiaris; parameters: dose 10 mg/kg, route oral; settings: plasma
[22] = Cmax in Sprague-Dawley rat brain at 10 mg/kg, po; format: ADME, organism-based; parameters: dose 10 mg/kg, route oral
[23] = Oral bioavailability in CD1 mouse at 10 mg/kg, po; format: ADME, organism-based; settings: in vivo
[24] = Cmax in CD1 mouse at 10 mg/kg, po; format: ADME, organism-based; parameters: dose 10 mg/kg, route oral; settings: in vivo
[25] = Cmax in rat at 5 mg/kg, iv or 10 mg/kg, po; format: ADME, organism-based; settings: in vivo
[26] = Volume of distribution in Beagle dog at 5 mg/kg, iv; format: ADME, organism-based, Canis lupus familiaris; parameters: dose 5 mg/kg, route intravenous; settings: in vivo
[27] = Ratio of drug level in brain to plasma in rat at 5 mg/kg, iv or 10 mg/kg, po after 1 hr; format: ADME, organism-based
Rattus norvegicus = assay: AUC in Sprague-Dawley rat brain at 10 mg/kg, po; format: ADME, organism-based; parameters: dose 10 mg/kg, route oral; settings: in vivo
[28] = Ratio of drug level in brain to plasma in CD1 mouse at 10 mg/kg, po; format: ADME, organism-based; parameters: dose 10 mg/kg, route oral
[29] = AUC in […] rhesus monkey at 10 mg/kg, po; format: ADME, organism-based, Macaca mulatta; parameters: dose 10 mg/kg, route oral; settings: plasma
[30] = AUC in Beagle dog at 5 mg/kg, iv; format: ADME, organism-based, Canis lupus familiaris; parameters: dose 5 mg/kg, route intravenous; settings: plasma
Mus musculus [31] = assay: Increase in food intake in C57BL/6J mouse at 20 mg/kg on day 12; format: functional, organism-based; parameters: dose 20 mg/kg
[32] = Oral bioavailability in Beagle dog at 10 mg/kg, po; format: ADME, organism-based, Canis lupus familiaris; settings: in vivo
Mus musculus [33] = assay: Increase in food intake in C57BL/6J mouse at 5 mg/kg on day 10; format: functional, organism-based; parameters: dose 5 mg/kg
[34] = Aqueous solubility at pH 3.0; format: physicochemical; settings: aqueous medium
Mus musculus [35] = assay: Increase in food intake in C57BL/6J mouse at 5 mg/kg on day 11; format: functional, organism-based; parameters: dose 5 mg/kg
Mus musculus [36] = assay: Increase in food intake in C57BL/6J mouse at 20 mg/kg on day 10; format: functional, organism-based; parameters: dose 20 mg/kg
[37] = Cmax in rhesus monkey at 10 mg/kg, po; format: ADME, organism-based, Macaca mulatta; parameters: dose 10 mg/kg, route oral; settings: in vivo
[38] = Oral bioavailability in rhesus monkey at 10 mg/kg, po; format: ADME, organism-based, Macaca mulatta; settings: in vivo
[39] = Tmax in CD1 mouse at 10 mg/kg, po; format: ADME, organism-based; parameters: dose 10 mg/kg, route oral; settings: in vivo, read-out: Tm
[40] = Cmax in CD1 mouse brain at 10 mg/kg, po; format: ADME, organism-based; parameters: dose 10 mg/kg, route oral
[41] = Cmax in Beagle dog at 10 mg/kg, po; format: ADME, organism-based, Canis lupus familiaris; parameters: dose 10 mg/kg, route oral; settings: in vivo
[42] = biological target: Melanocyte-stimulating hormone receptor (Homo sapiens) (UniProt Q01726); assay: Displacement of [125I]NDP-MSH from human MC1R
[43] = Cmax in Sprague-Dawley rat at 10 mg/kg, po; format: ADME, organism-based; parameters: dose 10 mg/kg, route oral; settings: in vivo
[44] = Tmax in Sprague-Dawley rat at 10 mg/kg, po; format: ADME, organism-based; parameters: dose 10 mg/kg, route oral; settings: in vivo, read-out: Tm
[45] = Tmax in CD1 mouse brain at 10 mg/kg, po; format: ADME, organism-based; parameters: dose 10 mg/kg, route oral
[46] = Tmax in rat at 5 mg/kg, iv or 10 mg/kg, po; format: ADME, organism-based; settings: in vivo
[47] = Volume of distribution in CD1 mouse at 2.5 mg/kg, iv; format: ADME, organism-based; parameters: dose 2.5 mg/kg, route intravenous; settings: in vivo
[48] = AUC in Sprague-Dawley rat at 10 mg/kg, po; format: ADME, organism-based; parameters: dose 10 mg/kg, route oral; settings: plasma
[49] = AUC in CD1 mouse at 2.5 mg/kg, iv; format: ADME, organism-based; parameters: dose 2.5 mg/kg, route intravenous; settings: plasma
[50] = Dissociation constant, pKa of the compound; format: physicochemical
Mus musculus [51] = assay: Increase in food intake in C57BL/6J mouse at 5 mg/kg on day 12; format: functional, organism-based; parameters: dose 5 mg/kg
Mus musculus [52] = assay: Increase in food intake in C57BL/6J mouse at 20 mg/kg on day 11; format: functional, organism-based; parameters: dose 20 mg/kg
[53] = Ratio of drug level in brain to plasma in rat at 2.5 mg/kg, iv or 10 mg/kg, po after 4 hrs; format: ADME, organism-based
[54] = Ratio of drug level in brain to plasma in rat at 2.5 mg/kg, iv or 10 mg/kg, po after 1 hr; format: ADME, organism-based

Sequence of Melanocortin receptor 4 (Homo sapiens) (P32245 whole entry): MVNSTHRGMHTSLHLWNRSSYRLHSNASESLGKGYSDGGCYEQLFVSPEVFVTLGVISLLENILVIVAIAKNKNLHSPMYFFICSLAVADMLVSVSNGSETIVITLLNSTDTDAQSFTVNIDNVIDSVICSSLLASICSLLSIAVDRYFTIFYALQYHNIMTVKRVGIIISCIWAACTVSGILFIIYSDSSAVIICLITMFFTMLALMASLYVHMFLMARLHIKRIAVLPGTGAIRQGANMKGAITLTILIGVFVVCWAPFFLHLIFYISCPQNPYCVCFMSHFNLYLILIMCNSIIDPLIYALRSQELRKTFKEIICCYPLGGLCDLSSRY
Sequence of Melanocyte-stimulating hormone receptor (Homo sapiens) (Q01726 whole entry, looked up): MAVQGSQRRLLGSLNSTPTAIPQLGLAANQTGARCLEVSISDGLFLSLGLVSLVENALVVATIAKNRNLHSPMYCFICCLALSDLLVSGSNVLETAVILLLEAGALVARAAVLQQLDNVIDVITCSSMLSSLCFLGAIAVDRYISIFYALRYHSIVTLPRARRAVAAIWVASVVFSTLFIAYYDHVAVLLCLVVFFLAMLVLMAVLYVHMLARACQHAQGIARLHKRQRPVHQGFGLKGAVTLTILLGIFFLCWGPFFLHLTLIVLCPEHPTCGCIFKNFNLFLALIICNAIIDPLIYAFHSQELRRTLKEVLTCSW
Sequence of Cytochrome P450 3A4 (P08684 whole entry): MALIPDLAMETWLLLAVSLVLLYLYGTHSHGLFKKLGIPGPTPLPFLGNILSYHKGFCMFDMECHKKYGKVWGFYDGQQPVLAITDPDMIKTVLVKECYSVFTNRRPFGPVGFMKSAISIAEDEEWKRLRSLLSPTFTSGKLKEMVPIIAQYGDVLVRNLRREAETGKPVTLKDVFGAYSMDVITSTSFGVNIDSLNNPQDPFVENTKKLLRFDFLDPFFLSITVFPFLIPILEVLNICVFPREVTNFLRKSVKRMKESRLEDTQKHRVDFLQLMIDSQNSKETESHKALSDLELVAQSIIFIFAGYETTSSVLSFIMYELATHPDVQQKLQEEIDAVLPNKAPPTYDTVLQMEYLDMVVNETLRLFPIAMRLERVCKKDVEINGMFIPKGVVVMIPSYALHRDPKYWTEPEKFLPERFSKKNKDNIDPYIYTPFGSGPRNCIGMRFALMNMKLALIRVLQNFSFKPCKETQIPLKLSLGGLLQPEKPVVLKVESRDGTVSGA

Structure (SMILES): CNCCN[C@H](c1cc(C)ccc1N1CCN(C(=O)[C@H](C)Cc2ccc(Cl)cc2F)CC1)C(C)C
half-life [1]: 17 h
permeability (Caco-2): 0.3 10^-6 cm/s
concentration at 4 h [2]: < 5 ng/g
AUC [3]: 299 ng·h/mL
Activity [4]: 7%
bioavailability [5]: 13%
concentration at 1 h [6]: < 5 ng/g
Cmax [7]: 22 ng/mL
Vd [8]: 95 L/kg
Tmax [9]: 6 h
clearance [10]: 60 mL/min/kg

Structure (SMILES): Cc1ccc(N2CCN(C(=O)[C@H](C)Cc3ccc(Cl)cc3F)CC2)c([C@@H](N)C(C)C)c1
Activity [4]: 5%

Structure (SMILES): Cc1ccc(N2CCN(C(=O)[C@H](C)Cc3ccc(Cl)cc3C)CC2)c([C@@H](N)C(C)C)c1
Activity [4]: 2%

Structure (SMILES): Cc1ccc(N2CCN(C(=O)[C@H](C)Cc3ccc(Cl)cc3C)CC2)c([C@@H](NC(=O)CCN(C)C)C(C)C)c1
permeability (Caco-2): 1.9 10^-6 cm/s
concentration at 4 h [2]: 42 ng/g
AUC [3]: 1950 ng·h/mL
Kp at 4 h [53]: 0.3
Kp at 1 h [54]: 0.1
bioavailability [5]: 5.6%
concentration at 1 h [6]: 9 ng/g
Cmax [7]: 208 ng/mL
Vd [8]: 4.3 L/kg
Tmax [9]: 4 h

Now from value to molecule, other results behind:

permeability (Caco-2): 0.8 10^-6 cm/s
Activity [4]: 12%
IC50 (Cytochrome P450 3A4): 6.9 µM
Structure (SMILES): CNCC(=O)N[C@H](c1cc(C)ccc1N1CCN(C(=O)[C@H](C)Cc2ccc(Cl)cc2F)CC1)C(C)C

Tmax [11]: 1.7 h
AUC [12]: 2530 ng·h/mL
Tmax [13]: 6 h
Vd [14]: 2 L/kg
permeability (Caco-2): 6.2 10^-6 cm/s
concentration at 4 h [2]: 33 ng/g
AUC [15]: 10300 ng·h/mL
AUC (Mus musculus [16]): 367 ng·h/g
Kp at 4 h [17]: 0.4
Tmax [18]: 1.8 h
solubility [19]: 33 mg/mL (≈ 62.6 mM)
Vd [20]: 13 L/kg
AUC [3]: 1400 ng·h/mL
AUC [21]: 2860 ng·h/mL
Cmax [22]: 41 ng/g
bioavailability [23]: 32%
Cmax [24]: 946 ng/mL
Cmax [25]: 110 ng/mL
Vd [26]: 5.9 L/kg
Kp at 1 h [27]: 0.2
AUC (Rattus norvegicus): 254 ng·h/g
Kp [28]: 0.15
AUC [29]: 3860 ng·h/mL
AUC [30]: 8200 ng·h/mL
bioavailability [32]: 19%
solubility [34]: > 71 mg/mL
Cmax [37]: 761 ng/mL
bioavailability [5]: 43%
concentration at 1 h [6]: 20 ng/g
bioavailability [38]: 19%
Tmax [39]: 0.5 h
Cmax [40]: 91 ng/g
Cmax [41]: 262 ng/mL
Activity [42]: 50%
Cmax [43]: 279 ng/mL
Tmax [44]: 2.7 h
Tmax [45]: 0.3 h
Tmax [46]: 4.7 h
Vd [47]: 4.1 L/kg
AUC [48]: 1520 ng·h/mL
AUC [49]: 1410 ng·h/mL
pKa [50]: 7.8
Structure (SMILES): Cc1ccc(N2CCN(C(=O)[C@H](C)Cc3ccc(Cl)cc3)CC2)c([C@@H](NC(=O)CCN(C)C)C(C)C)c1
Activity (Mus musculus [31]): Active
Activity (Mus musculus [33]): Active
Activity (Mus musculus [35]): Active
Activity (Mus musculus [36]): Active
Activity (Mus musculus [51]): Active
Activity (Mus musculus [52]): Active

permeability (Caco-2): 1.2 10^-6 cm/s
concentration at 4 h [2]: < 5 ng/g
AUC [3]: 563 ng·h/mL
bioavailability [5]: 15%
concentration at 1 h [6]: < 5 ng/g
Cmax [7]: 57 ng/mL
Activity [42]: 43%
Vd [8]: 20 L/kg
Tmax [9]: 3.3 h
Structure (SMILES): CNCCC(=O)N[C@H](c1cc(C)ccc1N1CCN(C(=O)[C@H](C)Cc2ccc(Cl)cc2)CC1)C(C)C

concentration at 4 h [2]: 31 ng/g
AUC [3]: 1470 ng·h/mL
bioavailability [5]: 13%
concentration at 1 h [6]: 8 ng/g
Cmax [7]: 134 ng/mL
Vd [8]: 4.2 L/kg
Tmax [9]: 4.7 h
Structure (SMILES): Cc1ccc(N2CCN(C(=O)[C@H](C)Cc3ccc(Cl)cc3F)CC2)c([C@@H](NC(=O)CCN(C)C)C(C)C)c1

permeability (Caco-2): 0.3 10^-6 cm/s
Activity [42]: 42%
Structure (SMILES): Cc1ccc(N2CCN(C(=O)[C@H](C)Cc3ccc(Cl)cc3)CC2)c([C@@H](NC(=O)CCN)C(C)C)c1

permeability (Caco-2): 5 10^-6 cm/s
Structure (SMILES): Cc1ccc(N2CCN(C(=O)[C@H](C)Cc3ccc(Cl)cc3)CC2)c([C@@H](N)C(C)C)c1
